Test results from patent publication US5990317A, “2-(1H-4(5)-imidazoyl) cyclopropyl compounds” (Gliatech, Inc., priority 1998, dated 1999).
Structures can show the parent of a compound that is named as a salt.

Target: Histamine H3 receptor
Experiment: In Vitro Histamine H3 Receptor Binding Analysis ([3H]-N-alpha-methylhistamine displacement, rat cortical membranes)
Conditions: [3H]-N-alpha-methylhistamine 0.8-1.2 nM, pH 7.4, 40 min, 25° C, read-out: Histamine H3 Receptor Binding Affinities, H3 Receptor Ki
Description: Histamine H3 receptor affinity was determined in rat cortical membranes using the H3 selective agonist ligand, [^3 H]-N^α -methylhistamine (78.9 Ci/mole, DuPont NEN Research Products, Boston, Mass.) according to the method of West et al., (1990) Mol. Pharmacol. 38: 610-613 with modifications. Briefly, animals were sacrificed by decapitation and the cerebral cortex was rapidly removed. Rat cortices were mechanically homogenized with an Omni 1000 motor driven homogenizer in 10 volumes (wt/vol) of Krebs-Ringers Hepes buffer (pH 7.4) containing the following protease inhibitors: EDTA (10 mM), PMSF (0.1 mM), chymostatin (0.2 mg/50 mL) and leupeptin (0.2 mg/50 mL). The homogenate was centrifuged in a Sorvall at ~40,000×g for 30 min. The pellet was resuspended by mechanical homogenization in 25 mL water and lysed on ice for 30 min. The homogenate was recentrifuged and the membrane lysis was repeated. The membranes were recentrifuged and the final pellet was resuspended in 14 volumes of water to give approximately 200 μg protein/100 μl final concentration. The suspension was stored at -80° prior to use. Protein concentrations were determined by Coomassie Plus Protein Assay (Pierce, Rockford, Ill.).
Nonspecific binding (NSB) was accounted for by the inclusion of thioperamide (10 μM). Samples were incubated for 40 minutes at 25° C. The samples were filtered through glass fiber strips, pre-washed with 0.3% polyethyleneimine, using a Brandell cell harvester. The filters were rapidly washed three times with 4 ml of 25 mm Tris buffer containing 145 mM NaCl (pH 7.4, 4° C.). Filters were transferred to polyethylene mini-vials and counted in 3.5 ml of scintillation fluid (Ecolume, ICN Biomedicals, Inc.). […] Saturation and competition experiments were analyzed with the ReceptorFit saturation and competition curve fitting programs (Lundon Software, Ind., Cleveland, Ohio).

Point of comparison: `C(=C\[C@@H]1C[C@H]1c1c[nH]cn1)/CCC1CCCCC1` (relative stereo) [Example 17, (±)-trans-4-(2-(4-cyclohexylbut-trans-1-enyl)cyclopropyl)imidazole], Ki 11 ± 1 nM. Against it:
- NC(CC1CCCCC1)C(=O)NC1CC1c1c[nH]cn1 [Example 12, (1R,2R)-trans-2(S)-amino-3-cyclohexyl-N-(2-imidazol-4-ylcyclopropyl)propanamide] — 5.9-fold lower, 1.85 ± 0.5 nM
- O=C(N[C@@H]1C[C@H]1c1c[nH]cn1)[C@@H]1CC2CCCCC2N1 (stereo partly drawn) [Example 15] — 3.4-fold higher, 37 ± 4 nM
- O=C(NCCCCC1CCCCC1)[C@@H]1C[C@H]1c1c[nH]cn1 (relative stereo) [Example 37, (±)-trans-N-(4-cyclohexylbutyl)(2-imidazol-4-ylcyclopropyl)formamide] — 6.2-fold higher, 68 nM
- CC1CCCCN1CCCNC(=O)[C@@H]1C[C@H]1c1c[nH]cn1 (relative stereo) [Example 3, (±)-trans-(2-imidazol-4-ylcyclopropyl)-N-(3-((±)-2-methylpiperidyl)formamide] — 60-fold higher, 659 ± 52 nM
- NC(CC1CCCCC1)C(=O)NC1CC1c1c[nH]cn1 [Example 13, (1S,2S)-trans-2(S)-amino-3-cyclohexyl-N-(2-imidazol-4-ylcyclopropyl)propanamide] — 2-fold higher, 21.5 ± 1.8 nM
- C[C@H](NC(=O)C1CC1c1c[nH]cn1)C1CCCCC1 (mixture of isomers) [Example 7, N-[(S)-1-Cyclohexylethyl]-3-(1H-imidazol-4-yl)-trans-(2R,3R)-cyclopropanamide and N-[(S)-1-Cyclohexylethyl]-3-(1H-imidazol-4-yl)-trans-(2S,3S)-cyclopropanamide hydrochloride] — 13-fold higher, 146 ± 13 nM
- O=C(NCC1CCCCC1)[C@@H]1C[C@H]1c1c[nH]cn1 (relative stereo) [Example 2, (±)-trans-N-(cyclohexylmethyl)(2-imidazol-4-ylcyclopropyl)formamide] — 3.4-fold higher, 37 ± 4 nM
- O=C(NCCc1c[nH]cn1)[C@@H]1C[C@H]1c1c[nH]cn1 (relative stereo) [Example 34, (±)-trans-(2-imidazol-4-ylcyclopropyl)-N-(2-imidazol-4-ylethyl)formamide] — 21-fold higher, 227 ± 26 nM
- c1nc([C@@H]2C[C@H]2COCCCC2CCCCC2)c[nH]1 (racemic) [Example 18, (±)-trans-(3-cyclohexylpropoxy)(2-imidazol-4-ylcyclopropyl)methane] — 22-fold higher, 240 ± 6 nM
- C(=C/[C@@H]1C[C@H]1c1c[nH]cn1)/CCC1CCCCC1 (relative stereo) [Example 16, (±)-trans-4-(2-(4-cyclohexylbut-cis-1-enyl)cyclopropyl)imidazole] — within error, 12.2 ± 1 nM
- O=C(NCCCN1CCOCC1)[C@@H]1C[C@H]1c1c[nH]cn1 (relative stereo) [Example 4, (±)-trans-(2-imidazol-4-ylcyclopropyl)-N-(3-morpholin-4-ylpropyl)formamide] — 130-fold higher, 1400 ± 158 nM
- O=C(NCC1CCCCC1)[C@@H]1C[C@H]1c1c[nH]cn1 [Example 2b] — 16-fold higher, 176 ± 9 nM
- O=C(NCCCC1CCCCC1)C1CC1c1c[nH]cn1 (stereo not drawn) [Example 30] — 3.8-fold higher, 42 ± 7 nM
- O=C(N[C@@H]1C[C@H]1c1c[nH]cn1)OCc1ccccc1 (relative stereo) [Example 26, (±)-trans-N-(2-imidazol-4ylcyclopropyl)(phenylmethoxy)formamide] — 1.9-fold lower, 5.8 ± 0.4 nM
- NC(C=CC1CC1c1c[nH]cn1)CC1CCCCC1 [Example 21, 1(R)-[1H-imidazol-4-yl]-2(R)-cyclopropyl-5-(S)-amino-6-cyclohexyl-3-cis-hexene] — 8.9-fold higher, 97.7 ± 28 nM
- NC(C=CC1CC1c1c[nH]cn1)CC1CCCCC1 [Example 20, (1R,2R)-trans-1-cyclohexyl-4-(2-imidazol-4-ylcyclopropyl)but-trans-3-en-2(S)-ylamine] — 30-fold lower, 0.37 ± 0.2 nM
- O=C(NCCc1c[nH]c2ccccc12)[C@@H]1C[C@H]1c1c[nH]cn1 (relative stereo) [Example 35, (±)-trans-(2-imidazol-4-ylcyclopropyl)-N-(2-indol-3-ylethyl)formamide] — within error, 44 ± 73 nM
- O=C(NCC(O)CC1CCCCC1)[C@@H]1C[C@H]1c1c[nH]cn1 (relative stereo) [Example 36, (±)-trans-N-(3-cyclohexyl-2-(±)-hydroxypropyl)(2-imidazol-4-ylcyclopropyl)formamide] — 13-fold higher, 145 nM
- O=C(NCCC1=CCCCC1)[C@@H]1C[C@H]1c1c[nH]cn1 (relative stereo) [Example 31, N-[2-Cyclohex-1-enyl-ethyl]-3(R)-[1H-imidazol-4-yl]-2(R)-cyclopropanamide HCl salt and N-[2-Cyclohex-1-enyl-ethyl]-3(S)-[1H-imidazol-4-yl]-2(S)-cyclopropanamide HCl salt] — 27-fold higher, 294 ± 26 nM
- O=C(CCCC1CCCCC1)[C@@H]1C[C@H]1c1c[nH]cn1 (racemic) [Example 10, (±)-trans-4-cyclohexyl-1-(2-imidazol-4-ylcyclopropyl)butan-1-one] — 8.8-fold higher, 97 ± 21 nM
- CN(CC1CCCCC1)C(=O)[C@@H]1C[C@H]1c1c[nH]cn1 (racemic) [Example 11, (±)-trans-N-(cyclohexylmethyl)(2-imidazol-4-ylcyclopropyl)-N-methylformamide] — 12-fold higher, 134 ± 13 nM
- C(=CC1CC1c1c[nH]cn1)CCC1CCCCC1 [Example 23, (1R,2R)-trans-4-(2-(4-cyclohexylbut-cis-1-enyl)cyclopropyl)imidazole] — 1.8-fold lower, 6.2 ± 0.8 nM
- C(=CC1CC1c1c[nH]cn1)CCC1CCCCC1 [Example 25, (1S,2S)-trans-4-(2-(4-cyclohexylbut-trans-1-enyl)cyclopropyl)imidazole] — 5.1-fold higher, 56 ± 9 nM
- C[C@@H](NC(=O)C1CC1c1c[nH]cn1)C1CCCCC1 (mixture of isomers) [Example 6, N-[(R)-1-Cyclohexylethyl]-3-(1H-imidazol-4-yl)-trans-(2R,3R)-cyclopropanamide and N-[(R)-1-Cyclohexylethyl]-3-(1H-imidazol-4-yl)-trans-(2S,3S)-cyclopropanamide hydrochloride] — 6.4-fold higher, 70 ± 8.6 nM
- O=C(Nc1ccccc1)[C@@H]1C[C@H]1c1c[nH]cn1 (relative stereo) [Example 5, N-(phenyl)-3-(1H-imidazol-4-yl)-trans-(2R,3R)-cyclopropanamide and N-(phenyl)-3-(1H-imidazol-4-yl)-trans-(2S,3S)-cyclopropanamide hydrochloride] — 24-fold higher, 267 ± 26 nM
- O=C(N[C@H]1C[C@@H]1c1c[nH]cn1)[C@@H]1CC2CCCCC2N1 (stereo partly drawn) [Example 14, (2R,3R)-trans-(7-azabicyclo[43.0]non-(S)-8-yl)-N-(2-imidazol-4-ylcyclopropyl)formamide] — within 1.5-fold, 8.5 ± 0.7 nM
- O=C(NCC12CC3CC(CC(C3)C1)C2)[C@@H]1C[C@H]1c1c[nH]cn1 (relative stereo) [Example 8, N-[1-Adamantylmethyl]-3-(1H-imidazol-4-yl)-trans-(2R,3R)-cyclopropanamide hydrochloride and N-[1-Adamantylmethyl]-3-(1H-imidazol-4-yl)-trans-(2S,3S)-cyclopropanamide hydrochloride] — 5-fold higher, 55 ± 6 nM
- O=C(NCCc1ccccc1)[C@@H]1C[C@H]1c1c[nH]cn1 (relative stereo) [Example 9, (±)-trans-(2-imidazol-4-ylcyclopropyl)-N-(2-phenylethyl)formamide] — 15-fold higher, 163 ± 19 nM
- O=C(NCCCC1CCCCC1)[C@@H]1C[C@H]1c1c[nH]cn1 (relative stereo) [Example 29, N-[3-cyclohexylpropyl]-3(R)-[1H-imidazoyl-4-yl]-2(R)-cyclopropanamide and N-[3-Cyclohexylpropyl]-3(S)-[1H-imidazoyl-4-yl]-2(R)-cyclopropanamide] — 3.3-fold higher, 36 ± 8 nM
